From paper PMC7476584, “Lipophilicity trends upon fluorination of isopropyl, cyclopropyl and 3-oxetanyl groups” (Beilstein Journal of Organic Chemistry, 2020)
Several values for one entry are separate records, joined by “and”; a condition that tells them apart may be missing. Equal entries are not always repeated. Where two headings read alike, the source gives them in different places.

Columns and labels:
[1] = Table S1; ref Hansch, Leo, Hoekman, Exploring QSAR, 1995; cited from earlier work
[2] = cited from earlier work
[3] = set-up: method as in PMID 31414105, PMID 29999054; conditions: series B, reversed-phase HPLC; cited from earlier work
[4] = 19F NMR-based octanol/water logP determination; conditions: for logP: n-octanol/water; for logP / logP (individual measurement): octanol/water, 25 °C, 19F NMR
[5] = physchem
[6] = SMD implicit solvation, MN15; values taken from the literature; cited from earlier work
[7] = Shake-flask lipophilicity (logP, logD7.4) of literature examples; type: physicochemical; conditions: geminal dimethyl 1 to cyclopropyl 2
[8] = logP (average logP), triplicate
[9] = logP (individual measurement), single experiment
[10] = logP average with error (standard deviation), triplicate, column Error

CCCCCCCO [1-heptanol]
Experimental logP for selected nonfluorinated alkanols [1]: 2.72

CC(C)(C)CO [2,2-dimethylpropan-1-ol]
Experimental logP for selected nonfluorinated alkanols [1]: 1.31

CCCCCC(C)O (centres unmarked) [2-heptanol]
Experimental logP for selected nonfluorinated alkanols [1]: 2.31

CCCCC(C)O (centres unmarked) [2-hexanol]
Experimental logP for selected nonfluorinated alkanols [1]: 1.76

CCCCCCC(C)O (centres unmarked) [2-octanol]
Experimental logP for selected nonfluorinated alkanols [1]: 2.90

CCCC(O)CC (centres unmarked) [3-hexanol]
Experimental logP for selected nonfluorinated alkanols [1]: 1.65

CC(C)C(C)O (centres unmarked) [3-methyl-2-butanol]
Experimental logP for selected nonfluorinated alkanols [1]: 1.28

CCC(O)CC [3-pentanol]
Experimental logP for selected nonfluorinated alkanols [1]: 1.21

CCCC(O)CCC [4-heptanol]
Experimental logP for selected nonfluorinated alkanols [1]: 2.22

CCCCC(O)CCC (centres unmarked) [4-octanol]
Experimental logP for selected nonfluorinated alkanols [1]: 2.68

C[C@@](CCN1Cc2cc(C#CC#C[C@H]3C[C@@H]3CO)cn2C1=O)(C(=O)NO)S(C)(=O)=O [7a]
logD7.4 ([2]; pH 7.4): 1.3

C[C@@](CCN1Cc2cc(C#CC#C[C@H]3C[C@]3(F)CO)cn2C1=O)(C(=O)NO)S(C)(=O)=O [7b]
logD7.4 ([2]; pH 7.4): 0.9

C[C@@](CCN1Cc2cc(C#CC#C[C@@H]3C[C@H]3CO)cn2C1=O)(C(=O)NO)S(C)(=O)=O [7c]
logD7.4 ([2]; pH 7.4): 1.1

C[C@@](CCN1Cc2cc(C#CC#C[C@@H]3C[C@@]3(F)CO)cn2C1=O)(C(=O)NO)S(C)(=O)=O [7d]
logD7.4 ([2]; pH 7.4): 0.9

c1ccc(C2CC2)cc1 [B1]
logP [3]: +3.40

F[C@@H]1[C@H](F)[C@@]1(F)c1ccccc1 [B2]
logP [3]: +2.56

FC1(F)CC1c1ccccc1 (centres unmarked) [B6]
logP [3]: +2.91

FC1(F)CC1(F)c1ccccc1 (centres unmarked) [B7]
logP [3]: +2.94

CN(C)CCCCc1ccc(C2COC2)cc1 [C1]
logD7.4 ([2]; pH 7.4): –0.1

CN(C)CCCCc1ccc(C2(F)COC2)cc1 [C2]
logD7.4 ([2]; pH 7.4): –0.5

CC(C)(F)CO [D2, 2-fluoro-2-methylpropan-1-ol]
Δ logP branched vs linear ([4]; D2 vs G2): 0.16
logP [4, 8]: 0.1
logP [4, 9]: 0.11
logP [4, 10]: 0.104
logP (individual measurement) ([4]; single experiment): +0.10

CC(CO)CF (centres unmarked) [D3, 3-fluoro-2-methylpropan-1-ol]
logP ([5]; logP (average logP)): 0.29
logP ([5]; logP (individual measurement)): 0.28
logP ([5]; logP average with error (standard deviation)): 0.289

CC(CO)C(F)F (centres unmarked) [D4, 3,3-difluoro-2-methylpropan-1-ol]
logP [4, 8]: 0.58
logP [4, 9]: 0.583
logP [4, 10]: 0.583
logP (individual measurement) ([4]; single experiment): +0.576 and +0.589

CC(CO)C(F)(F)F (centres unmarked) [D5, 3,3,3-trifluoro-2-methylpropan-1-ol]
logP [4, 8]: 0.98
logP [4, 9]: 0.977
logP [4, 10]: 0.978
logP (individual measurement) ([4]; single experiment): +0.978 and +0.979

OCC1(F)CC1 [E2, (1-fluorocyclopropyl)methanol]
logP reduction ([4]; G9 to E2): 0.72 logP units
logP [4, 8]: -0.05
logP [4, 10]: -0.054
logP (individual measurement) ([4]; single experiment): -0.06

OCCC(F)CF (centres unmarked) [G7, 3,4-difluorobutan-1-ol]
logPtheor (DFT) [6]: 1.06

OCCC(F)(F)CF [G8]
logPtheor (DFT) [6]: 1.30

O=C(c1ccc(CN2CCOCC2)cc1)N1CCN(C2CC2)CC1 [compound 2]
ΔlogD7.4 [7]: +0.73
ΔlogP [7]: +0.34

CN(C)CCCCc1ccc(C(C)(C)C)cc1 [compound 3]
logD7.4 ([2]; pH 7.4): 2.5

CN(C)CCCCc1ccc(C2(C)COC2)cc1 [compound 4]
logD7.4 ([2]; shake-flask): -0.1
logP ([2]; shake-flask): 2.4
